Results reported in the NIST ThermoML archive (doi:10.1016/j.jct.2016.04.020).

Assay: mn = molality of the nth substance listed, in mol/kg
Settings: 101.3 kPa, Liquid, Vibrating tube method

O=C([O-])CC(O)(CC(=O)[O-])C(=O)[O-].[Li+].[Li+].[Li+] [trilithium citrate] + O
mass density [kg/m3]
Settings | 278.15 K | 283.15 K | 288.15 K | 293.15 K | 298.15 K | 303.15 K | 308.15 K
m1 = 0.0128 | 1002 | 1001.66 | 1001.03 | 1000.13 | 998.94 | 997.54 | 995.93
m1 = 0.0256 | 1003.88 | 1003.48 | 1002.83 | 1001.93 | 1000.72 | 999.32 | 997.69
m1 = 0.06 | 1008.52 | 1008.09 | 1007.41 | 1006.4 | 1005.21 | 1003.8 | 1002.15
m1 = 0.1021 | 1013.86 | 1013.43 | 1012.68 | 1011.71 | 1010.53 | 1008.95 | 1007.28
m1 = 0.1956 | 1026.51 | 1025.89 | 1025.03 | 1023.97 | 1022.63 | 1021.12 | 1019.42
m1 = 0.293 | 1038.92 | 1038.19 | 1037.23 | 1036.06 | 1034.68 | 1033.1 | 1031.35
m1 = 0.3876 | 1050.53 | 1049.67 | 1048.63 | 1047.42 | 1045.95 | 1044.36 | 1042.52
m1 = 0.4799 | 1061.45 | 1060.48 | 1059.37 | 1058.1 | 1056.57 | 1054.93 | 1053.1
m1 = 0.6695 | 1083.25 | 1082.11 | 1080.85 | 1079.46 | 1077.86 | 1076.13 | 1074.26
m1 = 0.7552 | 1092.43 | 1091.22 | 1089.92 | 1088.49 | 1086.85 | 1085.11 | 1083.2
m1 = 0.8394 | 1101.64 | 1100.37 | 1099.01 | 1097.55 | 1095.87 | 1094.1 | 1092.17
m1 = 0.9407 | 1112.23 | 1110.89 | 1109.48 | 1107.97 | 1106.24 | 1104.46 | 1102.51
m1 = 1.33 | 1149.11 | 1147.56 | 1145.98 | 1144.34 | 1142.51 | 1140.64 | 1138.61
m1 = 1.74 | 1185.46 | 1183.73 | 1182.04 | 1180.29 | 1178.37 | 1176.43 | 1174.35
